Assay results from patent US20220313698A1, “MODULATORS OF CYSTIC FIBROSIS TRANSMEMBRANE CONDUCTANCE REGULATOR” (Vertex Pharmaceuticals Incorporated, priority 2019, published 2022).
“And” between values parts separate entries of the source, which are not always exact repeats. Equal values may be shown once. Read-outs that look alike come from different tables or passages of the source. Each block holds one compound with its values, some of them ahead of it.

How the values were obtained:
[1] = snar bond
[2] = target: T1, CFTR-mediated chloride transport (Homo sapiens, UniProt P13569); experiment: Corrector Assay A - membrane potential dye assay (enteroid cells); details: for Corrector Assay A % activity: % of chloride transport of triple combination control (1 μM (14S)-dispiro macrocycle + 3 μM tezacaftor + 300 nM ivacaftor); for EC50: read-out: Corrector Assay A EC50, human intestinal enteroid cells, 18-24 h incubation, acute 10 μM forskolin + 300 nM ivacaftor
[3] = target: T1, CFTR-mediated chloride transport; experiment: Corrector Assay B - membrane potential dye assay (enteroid cells); details: for Corrector Assay B % activity: % of chloride transport of triple combination control (3 μM Compound A + 3 μM tezacaftor + 300 nM ivacaftor); for EC50: read-out: Corrector Assay B EC50, human intestinal enteroid cells, 18-24 h incubation, acute 10 μM forskolin + 300 nM ivacaftor;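 as to all read-outs here: methyl oxonol membrane potential fluorescence followed over 15 min after switching to chloride-free buffer with forskolin, 100 µM IBMX and ivacaftor, in presence of CaCC blockers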
[4] = from CC1(C)C[C@H](CCC(Nc2cccc(S(=O)(=O)NC(=O)c3ccc(C(C)(C)C)nc3F)n2)c2cccc(Br)n2)CN1, 15-membered ring, K2CO3, NMP, 21.9 mM, 165.0 °C, 16.0 h

Corrector Assay A % activity [2]: ++ (++ is 30-60%) | EC50 [2]: < 1000 nM
Compound: CC(C)(C)c1ccc2c(n1)N1C[C@@H](CC[C@@H](c3cccc(Br)n3)Nc3cccc(n3)S(=O)(=O)NC2=O)CC1(C)C (single isomer, unassigned) [Compound 214]
ring closure, yield after HPLC [1, 4]: 45%

Corrector Assay A % activity [2]: +++ (+++ is >60%) | EC50 [2]: < 1000 nM
Compound: CC(C)(C)c1ccc2c(n1)N1C[C@@H](CC[C@H](c3cccc(Br)n3)Nc3cccc(n3)S(=O)(=O)NC2=O)CC1(C)C (single isomer, unassigned) [Compound 215]
ring closure, yield after HPLC [1, 4]: 46%

Corrector Assay A % activity [2]: + (+ is <30%) | EC50 [2]: < 1000 nM
Compound: CC(C)(C)c1ccc2c(n1)N1C[C@@H](CCCn3ccc4ccc(cc43)S(=O)(=O)NC2=O)CC1(C)C [Compound 260, (5S)-11-tert-Butyl-7,7-dimethyl-17λ^6-thia-1,8,10,16-tetraazapentacyclo[16.5.2.15,8.09,14.021,24]hexacosa-9(14),10,12,18,20,22,24-heptaene-15,17,17-trione]
ring closure, yield after HPLC ([1]; from CC(C)(C)OC(=O)N1C[C@@H](CCCn2ccc3ccc(S(=O)(=O)NC(=O)c4ccc(C(C)(C)C)nc4Cl)cc32)CC1(C)C, 15-membered ring, K2CO3, NMP, 118.8 mM, 160.0 °C, 2 steps): 5%

Corrector Assay A % activity [2]: ++ (++ is 30-60%) | EC50 [2]: < 1000 nM
Compound: CC1(C)CCCc2cc3c(nc21)N1C[C@@H](CCCNc2cccc(n2)S(=O)(=O)NC3=O)CC1(C)C [Compound 265, (18S)-11,11,16,16-Tetramethyl-2λ^6-thia-3,13,15,22,27-pentaazapentacyclo[21.3.1.115,18.05,14.07,12]octacosa-1(27),5(14),6,12,23,25-hexaene-2,2,4-trione]
ring closure, yield after HPLC ([1]; from CC1(C)C[C@H](CCCNc2cccc(S(=O)(=O)NC(=O)c3cc4c(nc3Cl)C(C)(C)CCC4)n2)CN1, 15-membered ring, K2CO3/3A MS, NMP, 33.9 mM, 170.0 °C, 84.0 h, 2 steps): 11%

Corrector Assay B % activity [3]: +++ (+++ is >60%) | EC50 [3]: < 1000 nM | Corrector Assay A % activity [2]: +++ (+++ is >60%) | EC50 [2]: < 1000 nM
Compound: CC(C)(C)c1ccc2c(n1)N1C[C@@H](CCCNc3cccc(n3)S(=O)(=O)NC2=O)CC1(C)C [Compound 296, (14S)-8-tert-Butyl-12,12-dimethyl-2λ^6-thia-3,9,11,18,23-pentaazatetracyclo[17.3.1.111,14.05,10]tetracosa-1(23),5(10),6,8,19,21-hexaene-2,2,4-trione]
ring closure, yield after HPLC ([1]; from CC1(C)C[C@H](CCCNc2cccc(S(=O)(=O)NC(=O)c3ccc(C(C)(C)C)nc3Cl)n2)CN1, 15-membered ring, K2CO3/3A MS, DMSO, 53.4 mM, 165.0 °C, 60.0 h, 2 steps): 43%

Corrector Assay B % activity [3]: +++ (+++ is >60%) | EC50 [3]: 1000 to 3000 nM
Compound: CC1(C)C[C@@H]2CCCN(Cc3nn[nH]n3)c3cccc(n3)S(=O)(=O)NC(=O)c3ccc(-n4ccc(OCCC5(C(F)(F)F)CC5)n4)nc3N1C2 [Compound 372, (14S)-12,12-Dimethyl-18-[(2H-1,2,3,4-tetrazol-5-yl)methyl]-8-(3-{2-[1-(trifluoromethyl)cyclopropyl]ethoxy}-1H-pyrazol-1-yl)-2λ^6-thia-3,9,11,18,23-pentaazatetracyclo[17.3.1.111,14.05,10]tetracosa-1(23),5(10),6,8,19,21-hexaene-2,2,4-trione]
ring closure, yield after HPLC ([1]; from CC1(C)C[C@H](CCCN(Cc2nn[nH]n2)c2cccc(S(=O)(=O)NC(=O)c3ccc(-n4ccc(OCCC5(C(F)(F)F)CC5)n4)nc3Cl)n2)CN1, 15-membered ring, K2CO3/3A MS, DMSO, 25.8 mM, 155.0 °C, 18.0 h, 2 steps): 18%

Corrector Assay B % activity [3]: +++ (+++ is >60%) | EC50 [3]: < 1000 nM
Compound: CC1(C)C[C@@H]2CCCn3nnnc3CNc3cccc(n3)S(=O)(=O)NC(=O)c3ccc(-n4ccc(OCCC5(C(F)(F)F)CC5)n4)nc3N1C2 [Compound 380, (12S)-14,14-dimethyl-18-(3-{2-[1-(trifluoromethyl)cyclopropyl]ethoxy}-1H-pyrazol-1-yl)-24λ^6-thia-2,5,6,7,8,15,17,23,29-noNaazapentacyclo [23.3.1.112,15.04,8.016,21]triaconta-1(28),4,6,16,18,20,25(29),26-octaene-22,24,24-trione]
ring closure, yield after HPLC ([1]; from CC1(C)C[C@H](CCCn2nnnc2CNc2cccc(S(=O)(=O)NC(=O)c3ccc(-n4ccc(OCCC5(C(F)(F)F)CC5)n4)nc3Cl)n2)CN1, 18-membered ring, K2CO3/3A MS, DMSO, 35.1 mM, 155.0 °C, 16.0 h, 2 steps): 41%

Corrector Assay B % activity [3]: +++ (+++ is >60%) | EC50 [3]: < 1000 nM
Compound: CC1(C)C[C@@H]2CCCN(CC(O)CO)c3cccc(n3)S(=O)(=O)NC(=O)c3ccc(-n4ccc(OCCC5(C(F)(F)F)CC5)n4)nc3N1C2 (stereo partly drawn) [Compound 382, (14S)-18-(2,3-dihydroxypropyl)-12,12-dimethyl-8-(3-{2-[1-(trifluoromethyl)cyclopropyl]ethoxy}-1H-pyrazol-1-yl)-2λ^6-thia-3,9,11,18,23-pentaazatetracyclo [17.3.1.111,14.05,10]tetracosa-1(22),5,7,9,19(23),20-hexaene-2,2,4-trione]
ring closure, yield after HPLC ([1]; from CC(C)(C)OC(=O)N1C[C@@H](CCCN(CC2COC(C)(C)O2)c2cccc(S(=O)(=O)NC(=O)c3ccc(-n4ccc(OCCC5(C(F)(F)F)CC5)n4)nc3Cl)n2)CC1(C)C, 15-membered ring, K2CO3/4A MS, DMSO, 38.5 mM, 140.0 °C, 2 steps): 59%

Further lines, the compound ahead of its results:

Compound: CC(C)(C)OC(=O)N1C[C@@H](CCC(c2ccccc2)n2ccc(S(=O)(=O)NC(=O)c3ccc(C(C)(C)C)nc3Cl)n2)CC1(C)C (stereo partly drawn)
ring closure, yield after HPLC ([1]; the molecule shown is the open-chain precursor, 14-membered ring, K2CO3, NMP, 74.5 mM, 140.0 °C, 2 steps): 13%

Compound: CC(C)COc1cc(F)cc(-c2ccc3c(n2)N2C[C@@H](CCC(c4ccccn4)Nc4cccc(n4)S(=O)(=O)NC3=O)CC2(C)C)c1 (stereo partly drawn)
ring closure, yield after HPLC ([1]; from CC(C)COc1cc(F)cc(-c2ccc(C(=O)NS(=O)(=O)c3cccc(NC(CC[C@@H]4CN(C(=O)OC(C)(C)C)C(C)(C)C4)c4ccccn4)n3)c(Cl)n2)c1, 15-membered ring, K2CO3, NMP, 38.2 mM, 140.0 °C, 2 steps): 18% and 31%

Compound: CCCC1(C)CC2CCCNc3cccc(n3)S(=O)(=O)NC(=O)c3ccc(-n4ccc(OCCC5(C(F)(F)F)CC5)n4)nc3N1C2 (stereo not drawn)
ring closure, yield after HPLC ([1]; from CCCC1(C)CC(CCCNc2cccc(S(=O)(=O)NC(=O)c3ccc(-n4ccc(OCCC5(C(F)(F)F)CC5)n4)nc3Cl)n2)CN1, 15-membered ring, K2CO3, NMP, 20.9 mM, 150.0 °C, 16.0 h): 28%

Compound: CC(C)(C)c1ccc2c(n1)N1C[C@@H](CCC(c3ccc(Cl)cn3)Nc3cccc(n3)S(=O)(=O)NC2=O)CC1(C)C (single isomer, unassigned; diastereomer 1)
ring closure, yield after HPLC ([1]; from CC1(C)C[C@H](CCC(Nc2cccc(S(=O)(=O)NC(=O)c3ccc(C(C)(C)C)nc3F)n2)c2ccc(Cl)cn2)CN1, 15-membered ring, K2CO3/3A MS, NMP, 78.4 mM, 150.0 °C, 4.0 h, 2 steps): 39%

Compound: CC(C)C1CC[C@@H]2CN(c3nc(-n4ccc(OCCC5C6(CC6)C56CC6)n4)ccc3C(=O)NS(=O)(=O)c3cccc(n3)N1)C(C)(C)C2 (single isomer, unassigned; diastereomer 1)
ring closure, yield after HPLC ([1]; from CC(C)C(CC[C@H]1CNC(C)(C)C1)Nc1cccc(S(=O)(=O)NC(=O)c2ccc(-n3ccc(OCCC4C5(CC5)C45CC5)n3)nc2Cl)n1, 15-membered ring, K2CO3, NMP, 20.9 mM, 165.0 °C, 16.0 h): 68%

Compound: CC(C)(C)c1ccc2c(n1)N1C[C@@H](CCC(c3ccc(Cl)cn3)Nc3cccc(n3)S(=O)(=O)NC2=O)CC1(C)C (single isomer, unassigned; diastereomer 2)
ring closure, yield after HPLC ([1]; from CC1(C)C[C@H](CCC(Nc2cccc(S(=O)(=O)NC(=O)c3ccc(C(C)(C)C)nc3F)n2)c2ccc(Cl)cn2)CN1, 15-membered ring, K2CO3/3A MS, NMP, 55.9 mM, 150.0 °C, 4.0 h, 2 steps): 34%

Compound: CC(C)C1CC[C@@H]2CN(c3nc(-n4ccc(OCCC5C6(CC6)C56CC6)n4)ccc3C(=O)NS(=O)(=O)c3cccc(n3)N1)C(C)(C)C2 (single isomer, unassigned; diastereomer 2)
ring closure, yield after HPLC ([1]; from CC(C)C(CC[C@H]1CNC(C)(C)C1)Nc1cccc(S(=O)(=O)NC(=O)c2ccc(-n3ccc(OCCC4C5(CC5)C45CC5)n3)nc2Cl)n1, 15-membered ring, K2CO3, NMP, 23.0 mM, 165.0 °C, 16.0 h): 60%

Compound: CC(C)(C)c1ccnc([C@H]2CC[C@@H]3CN(c4nc(Br)ccc4C(=O)NS(=O)(=O)c4cccc(n4)N2)C(C)(C)C3)c1 [Compound 55, (14S,17R)-8-bromo-17-(4-tert-butylpyridin-2-yl)-12,12-dimethyl-2λ^6-thia-3,9,11,18,23-pentaazatetracyclo[17.3.1.111,14.05,10]tetracosa-1(22),5,7,9,19(23),20-hexaene-2,2,4-trione]
ring closure, yield after HPLC ([1]; from CC1(C)C[C@@H](CCC(Nc2cccc(S(=O)(=O)NC(=O)c3ccc(Br)nc3Cl)n2)c2cc(C(C)(C)C)ccn2)CN1, 15-membered ring, K2CO3, DMA, 97.8 mM, 140.0 °C, 7.0 h): 23% | Corrector Assay A % activity [2]: ++ (++ is 30-60%) | EC50 [2]: < 1000 nM

Compound: CC1(C)C[C@@H]2CC[C@H](c3cccc(C(F)(F)F)n3)Nc3cccc(n3)S(=O)(=O)NC(=O)c3ccc(Br)nc3N1C2 [Compound 56, (14S,17R)-8-Bromo-12,12-dimethyl-17-[6-(trifluoromethyl)pyridin-2-yl]-2λ^6-thia-3,9,11,18,23-pentaazatetracyclo[17.3.1.111,14.05,10]tetracosa-1(22),5,7,9,19(23),20-hexaene-2,2,4-trione]
ring closure, yield after HPLC ([1]; from CC1(C)C[C@@H](CCC(Nc2cccc(S(=O)(=O)NC(=O)c3ccc(Br)nc3Cl)n2)c2cccc(C(F)(F)F)n2)CN1, 15-membered ring, K2CO3, DMA, 98.5 mM, 140.0 °C): 21% | Corrector Assay A % activity [2]: + (+ is <30%) | EC50 [2]: > 3000 nM
